Test results as given in patent US12064426B2, “Selective inhibitors of ROCK1 and ROCK2 protein kinases and uses thereof” (GENOSCO Inc., priority 2021, dated 2024).
pIC50: −log10 of the molar value.

Experiments:
[1] = molecular target: T1, Recombinant ROCK1 (amino acids 1-477) (Homo sapiens, UniProt Q13464); test: ROCK inhibition assay, LANCE Ultra TR-FRET kinase assay (ROCK1); assay type: biochemical; conditions: 1 μM ATP, 50 nM ULight-CREBtide substrate
T1 construct: Recombinant ROCK1 (amino acids 1-477); by word order, ROCK1 from Carna Biosciences
Summary of the method: (§1)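 Reaction buffer 50 mM HEPES pH 7.5, 10 mM MgCl2, 1 mM EGTA, 2 mM DTT; kinase, ULight-CREBtide (50 nM) and ATP (ROCK1 1 μM, ROCK2 4 μM) react 1 h at room temperature. Phospho-Ser133 detected by europium antibody after 10 mM EDTA stop, TR-FRET ex 320 nm; IC50 calculated.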

[2] = molecular target: T2, Recombinant ROCK2 (amino acids 5-554) (Homo sapiens, UniProt O75116); test: ROCK inhibition assay, LANCE Ultra TR-FRET kinase assay (ROCK2); assay type: biochemical; conditions: 4 μM ATP, 50 nM ULight-CREBtide substrate
T2 construct: ROCK2 (amino acids 5-554); by word order, ROCK2 from SignalChem
Summary of the method: as §1

T1 sequence (Q13464 1-477): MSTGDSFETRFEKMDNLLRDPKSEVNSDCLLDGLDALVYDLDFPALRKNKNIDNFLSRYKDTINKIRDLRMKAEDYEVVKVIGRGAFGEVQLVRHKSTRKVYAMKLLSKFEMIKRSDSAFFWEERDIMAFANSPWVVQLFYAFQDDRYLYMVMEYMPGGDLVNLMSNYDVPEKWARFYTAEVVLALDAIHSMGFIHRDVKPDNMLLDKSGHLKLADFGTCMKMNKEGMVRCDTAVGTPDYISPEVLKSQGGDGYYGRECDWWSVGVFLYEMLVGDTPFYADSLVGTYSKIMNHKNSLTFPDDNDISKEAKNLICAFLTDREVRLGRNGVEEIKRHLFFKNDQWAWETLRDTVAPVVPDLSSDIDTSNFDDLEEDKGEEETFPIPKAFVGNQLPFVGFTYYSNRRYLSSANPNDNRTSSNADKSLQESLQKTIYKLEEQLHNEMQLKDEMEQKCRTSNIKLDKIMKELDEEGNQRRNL
T2 sequence (O75116 5-554): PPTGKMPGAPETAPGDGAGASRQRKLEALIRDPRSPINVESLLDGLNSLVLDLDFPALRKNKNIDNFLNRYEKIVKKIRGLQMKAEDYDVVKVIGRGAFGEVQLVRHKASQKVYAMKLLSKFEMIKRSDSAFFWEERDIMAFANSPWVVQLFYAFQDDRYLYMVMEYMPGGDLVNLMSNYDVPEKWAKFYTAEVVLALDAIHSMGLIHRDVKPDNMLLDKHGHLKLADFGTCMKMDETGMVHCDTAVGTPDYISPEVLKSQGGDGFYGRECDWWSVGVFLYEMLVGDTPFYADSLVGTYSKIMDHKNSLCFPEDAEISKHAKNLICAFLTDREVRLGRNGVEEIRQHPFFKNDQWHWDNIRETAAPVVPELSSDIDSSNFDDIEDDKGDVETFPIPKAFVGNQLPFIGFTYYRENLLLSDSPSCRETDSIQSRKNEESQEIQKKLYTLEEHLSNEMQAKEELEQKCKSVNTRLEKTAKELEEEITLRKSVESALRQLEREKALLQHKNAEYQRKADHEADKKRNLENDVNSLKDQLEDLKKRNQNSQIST

Row | SMILES | pIC50 [1] | pIC50 [2]
1 | Cn1nccc1-c1ccc2c(=O)n(Cc3cccc(C(=O)NCC4COC4)c3)cnc2c1 [Compound 431] | 7.00 to 7.96 | 7.00 to 8.00
2 | Cn1nccc1-c1ccc2c(=O)n(Cc3cccc(C(=O)NCCO)c3)cnc2c1 [Compound 432] | 6.30 to 7.00 | 7.00 to 8.00
3 | CNC(=O)c1cccc(Cn2cnc3cc(-c4ccnc(N)c4)ccc3c2=O)c1 [Compound 433] | 6.30 to 7.00 | 7.00 to 8.00
4 | Nc1cc(-c2ccc3c(=O)n(Cc4cccc(C(=O)NC5COC5)c4)cnc3c2)ccn1 [Compound 434] | 6.30 to 7.00 | 7.00 to 8.00
5 | Nc1cc(-c2ccc3c(=O)n(Cc4cccc(C(=O)NC5CCOCC5)c4)cnc3c2)ccn1 [Compound 435] | 6.30 to 7.00 | 7.00 to 8.00
6 | CN1CCC(NC(=O)c2cccc(Cn3cnc4cc(-c5ccnc(N)c5)ccc4c3=O)c2)CC1 [Compound 436] | 7.00 to 7.96 | > 8.00
7 | Nc1cc(-c2ccc3c(=O)n(Cc4cccc(C(=O)NCC5CCOCC5)c4)cnc3c2)ccn1 [Compound 438] | 7.00 to 7.96 | 7.00 to 8.00
8 | CNC(=O)c1cccc(Cn2cnc3cc(-c4cnnn4C)ccc3c2=O)c1 [Compound 439] | < 6.30 | < 6.30
9 | C[C@H](c1cccc(C(=O)N(C)Cc2ccncc2)c1)n1cnc2cc(-c3cn[nH]c3C(F)(F)F)ccc2c1=O [Compound 446] | < 6.30 | < 6.30
10 | C[C@H](c1cccc(C(=O)NCc2ccncc2)c1)n1cnc2cc(-c3cn[nH]c3C(F)(F)F)ccc2c1=O [Compound 447] | > 8.00 | > 8.00
11 | C[C@H](c1cccc(C(=O)NC2CCOCC2)c1)n1cnc2cc(-c3cn[nH]c3C(F)(F)F)ccc2c1=O [Compound 449] | 7.00 to 7.96 | > 8.00
12 | C[C@H](c1cccc(C(=O)NC2CCN(C)CC2)c1)n1cnc2cc(-c3cn[nH]c3C(F)(F)F)ccc2c1=O [Compound 450] | > 8.00 | > 8.00
13 | C[C@H](c1cccc(C(=O)NCC2CCOCC2)c1)n1cnc2cc(-c3cn[nH]c3C(F)(F)F)ccc2c1=O [Compound 451] | 7.00 to 7.96 | > 8.00
14 | C[C@H](c1cccc(C(=O)NCC2COC2)c1)n1cnc2cc(-c3cn[nH]c3C(F)(F)F)ccc2c1=O [Compound 452] | 7.00 to 7.96 | > 8.00
15 | CNC(=O)c1cc(F)cc([C@@H](C)n2cnc3cc(-c4cn[nH]c4C(F)(F)F)ccc3c2=O)c1 [Compound 454] | 7.00 to 7.96 | > 8.00
16 | [2H]C([2H])([2H])NC(=O)c1cc(F)cc([C@@H](C)n2cnc3cc(-c4cn[nH]c4C(F)(F)F)ccc3c2=O)c1 [Compound 455] | 7.00 to 7.96 | > 8.00
17 | CNC(=O)c1cc([C@@H](C)n2cnc3cc(-c4cn[nH]c4C(F)(F)F)ccc3c2=O)ccc1F [Compound 456] | 6.30 to 7.00 | 7.00 to 8.00
18 | C[C@H](c1cccc(C(=O)NCC2CCN(C)CC2)c1)n1cnc2cc(-c3cn[nH]c3C(F)F)ccc2c1=O [Compound 461] | > 8.00 | > 8.00
19 | C[C@H](c1cccc(C(=O)NCC2CCOCC2)c1)n1cnc2cc(-c3cn[nH]c3C(F)F)ccc2c1=O [Compound 462] | 7.00 to 7.96 | > 8.00
20 | CNC(=O)c1cc(F)cc([C@@H](C)n2cnc3cc(-c4cn[nH]c4C(F)F)ccc3c2=O)c1 [Compound 463] | 7.00 to 7.96 | > 8.00

Row | SMILES | pIC50 [1] | pIC50 [2]
21 | Cc1nocc1-c1ccc2c(=O)n([C@H](C)c3cccc(C(=O)N(C)C)c3)cnc2c1 [Compound 470] | < 6.30 | < 6.30
22 | Cc1nocc1-c1ccc2c(=O)n([C@H](C)c3cccc(C(=O)NCC4CCN(C)CC4)c3)cnc2c1 [Compound 472] | > 8.00 | > 8.00
23 | Cc1nocc1-c1ccc2c(=O)n([C@H](C)c3cccc(C(=O)NCC4CCNCC4)c3)cnc2c1 [Compound 473] | > 8.00 | > 8.00
24 | Cc1nocc1-c1ccc2c(=O)n([C@H](C)c3cccc(C(=O)NCCN4CCOCC4)c3)cnc2c1 [Compound 474] | 7.00 to 7.96 | > 8.00
25 | Cc1nocc1-c1ccc2c(=O)n([C@H](C)c3cccc(C(=O)NCC(F)(F)F)c3)cnc2c1 [Compound 475] | 7.00 to 7.96 | > 8.00
26 | [2H]C([2H])([2H])NC(=O)c1cccc([C@@H](C)n2cnc3cc(-c4ccnn4C)ccc3c2=O)c1 [Compound 477] | 7.00 to 7.96 | > 8.00
27 | C[C@H](c1cccc(C(=O)N[C@H]2C[C@@H](O)C2)c1)n1cnc2cc(-c3ccnn3C)ccc2c1=O [Compound 478] | 7.00 to 7.96 | > 8.00
28 | C[C@H](c1cccc(C(=O)NCC2COC2)c1)n1cnc2cc(-c3ccnn3C)ccc2c1=O [Compound 479] | 7.00 to 7.96 | > 8.00
29 | C[C@H](c1cccc(C(=O)NCCO)c1)n1cnc2cc(-c3ccnn3C)ccc2c1=O [Compound 480] | 6.30 to 7.00 | 7.00 to 8.00
30 | C[C@H](c1cccc(C(=O)N(C)C)c1)n1cnc2cc(-c3ccnc(N)c3)ccc2c1=O [Compound 482] | < 6.30 | < 6.30
31 | O=c1c2ccc(-c3ccncc3)cc2ncn1C(CO)c1cccc(Cl)c1 (centres unmarked) [Compound 483, 3-(1-(3-chlorophenyl)-2-hydroxyethyl)-7-(pyridin-4-yl)quinazolin-4(3H)-one] | 6.30 to 7.00 | 7.00 to 8.00
32 | Nc1cc(-c2ccc3c(=O)n(C(CO)c4cccc(Cl)c4)cnc3c2)ccn1 (centres unmarked) [Compound 484] | 6.30 to 7.00 | 7.00 to 8.00
33 | Cc1[nH]ncc1-c1ccc2c(=O)n(C(CO)c3cccc(Cl)c3)cnc2c1 (centres unmarked) [Compound 485] | 7.00 to 7.96 | 7.00 to 8.00
34 | Cc1nocc1-c1ccc2c(=O)n(C(CO)c3cccc(Cl)c3)cnc2c1 (centres unmarked) [Compound 488] | 6.30 to 7.00 | 7.00 to 8.00
35 | COc1cccc(C(CO)n2cnc3cc(-c4cn[nH]c4C)ccc3c2=O)c1 (centres unmarked) [Compound 489] | 7.00 to 7.96 | 7.00 to 8.00
36 | COc1cccc(C(CO)n2cnc3cc(-c4cn[nH]c4C(F)(F)F)ccc3c2=O)c1 (centres unmarked) [Compound 490] | 7.00 to 7.96 | 7.00 to 8.00
37 | COc1cccc(C(CO)n2cnc3cc(-c4cn[nH]c4Cl)ccc3c2=O)c1 (centres unmarked) [Compound 491] | 7.00 to 7.96 | 7.00 to 8.00
38 | NCC(c1cccc(Cl)c1)n1cnc2cc(-c3ccnc(F)c3)ccc2c1=O (centres unmarked) [Compound 492, 3-(2-amino-1-(3-chlorophenyl)ethyl)-7-(2-fluoropyridin-4-yl)quinazolin-4(3H)-one] | 7.00 to 7.96 | 7.00 to 8.00
39 | NCC(c1cccc(Cl)c1)n1cnc2cc(-c3ccnc(N)c3)ccc2c1=O (centres unmarked) [Compound 493] | 7.00 to 7.96 | > 8.00
40 | Cc1[nH]ncc1-c1ccc2c(=O)n(C(CN)c3cccc(Cl)c3)cnc2c1 (centres unmarked) [Compound 494] | > 8.00 | > 8.00

Next, values leading:

Row | pIC50 [1] | pIC50 [2] | SMILES
41 | 7.00 to 7.96 | > 8.00 | CNC(=O)c1cccc([C@@H](C)n2cnc3cc(-c4cn[nH]c4C)ccc3c2=O)c1 [Compound 441]
42 | < 6.30 | < 6.30 | C[C@H](c1cccc(C(=O)N(C)C)c1)n1cnc2cc(-c3cn[nH]c3C(F)(F)F)ccc2c1=O [Compound 442]
43 | 7.00 to 7.96 | > 8.00 | [2H]C([2H])([2H])NC(=O)c1cccc([C@@H](C)n2cnc3cc(-c4cn[nH]c4C(F)(F)F)ccc3c2=O)c1 [Compound 443]
44 | 7.00 to 7.96 | > 8.00 | CNC(=O)c1cccc([C@H](C)n2cnc3cc(-c4cn[nH]c4C(F)(F)F)ccc3c2=O)c1 [Compound 444]
45 | 7.00 to 7.96 | > 8.00 | CC(C)NC(=O)c1cccc([C@@H](C)n2cnc3cc(-c4cn[nH]c4C(F)(F)F)ccc3c2=O)c1 [Compound 445]
46 | 7.00 to 7.96 | 7.00 to 8.00 | C[C@H](c1cccc(C(=O)NCCO)c1)n1cnc2cc(-c3cn[nH]c3C(F)(F)F)ccc2c1=O [Compound 453]
47 | 7.00 to 7.96 | > 8.00 | CNC(=O)c1cccc([C@@H](C)n2cnc3cc(-c4cn[nH]c4C(F)F)ccc3c2=O)c1 [Compound 457]
48 | 7.00 to 7.96 | > 8.00 | [2H]C([2H])([2H])NC(=O)c1cccc([C@@H](C)n2cnc3cc(-c4cn[nH]c4C(F)F)ccc3c2=O)c1 [Compound 458]
49 | 6.30 to 7.00 | 7.00 to 8.00 | C[C@H](c1cccc(C(=O)NCCO)c1)n1cnc2cc(-c3cn[nH]c3C(F)F)ccc2c1=O [Compound 459]
50 | > 8.00 | > 8.00 | C[C@H](c1cccc(C(=O)NCCN(C)C)c1)n1cnc2cc(-c3cn[nH]c3C(F)F)ccc2c1=O [Compound 460]
51 | > 8.00 | > 8.00 | C[C@H](c1cccc(C(=O)NC2CCN(C)CC2)c1)n1cnc2cc(-c3cn[nH]c3Cl)ccc2c1=O [Compound 464]
52 | > 8.00 | > 8.00 | C[C@H](c1cccc(C(=O)NCC2CCN(C)CC2)c1)n1cnc2cc(-c3cn[nH]c3Cl)ccc2c1=O [Compound 465]
53 | 7.00 to 7.96 | > 8.00 | [2H]C([2H])([2H])NC(=O)c1cccc([C@@H](C)n2cnc3cc(-c4cn[nH]c4Cl)ccc3c2=O)c1 [Compound 467]
54 | 6.30 to 7.00 | 7.00 to 8.00 | CNC(=O)c1cccc([C@H](C)n2cnc3cc(-c4cn[nH]c4Cl)ccc3c2=O)c1 [Compound 468]
55 | 7.00 to 7.96 | > 8.00 | [2H]C([2H])([2H])NC(=O)c1cccc([C@@H](C)n2cnc3cc(-c4conc4C)ccc3c2=O)c1 [Compound 471]
56 | 7.00 to 7.96 | > 8.00 | CNC(=O)c1cccc([C@@H](C)n2cnc3cc(-c4ccnn4C)ccc3c2=O)c1 [Compound 476]
57 | 6.30 to 7.00 | 7.00 to 8.00 | CNC(=O)c1cccc([C@@H](C)n2cnc3cc(-c4ccnc(N)c4)ccc3c2=O)c1 [Compound 481]
58 | 7.00 to 7.96 | 7.00 to 8.00 | O=c1c2ccc(-c3cn[nH]c3Cl)cc2ncn1C(CO)c1cccc(Cl)c1 (centres unmarked) [Compound 487]
